Laboratory results taken from article PMC6965684, “Characterization of binding, functional activity, and contractile responses of the selective 5‐HT1F receptor agonist lasmiditan” (British Journal of Pharmacology, 2019).
Where a name gives a salt, the structure may show the parent alone. Read-outs that look alike come from different tables or passages of the source.

Tests used:
5-ht1E receptor = molecular target: T1, 5-ht1E receptor (Homo sapiens, UniProt P28566); test: cell-based; set-up: species or system CHO-K1; cAMP HTRF agonist assay, Gi coupled receptors, inhibition of stimulated cAMP; settings: cAMP
T1 construct: gene HTR1E; full-length human recombinant receptor in CHO-K1 cells (Ogeda); crude membranes
T1 sequence (P28566 whole entry): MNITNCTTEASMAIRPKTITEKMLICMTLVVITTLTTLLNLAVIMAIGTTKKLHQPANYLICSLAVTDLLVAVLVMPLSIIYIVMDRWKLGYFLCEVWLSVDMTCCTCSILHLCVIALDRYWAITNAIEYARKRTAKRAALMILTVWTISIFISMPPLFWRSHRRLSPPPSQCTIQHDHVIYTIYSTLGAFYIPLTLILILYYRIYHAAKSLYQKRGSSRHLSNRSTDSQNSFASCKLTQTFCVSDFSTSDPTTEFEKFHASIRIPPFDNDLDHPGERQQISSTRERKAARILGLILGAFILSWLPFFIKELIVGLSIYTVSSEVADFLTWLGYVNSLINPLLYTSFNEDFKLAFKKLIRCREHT
Method: (§1) Concentration–response curves were performed in parallel with the agonists. […] After addition of the lysis buffer and 1‐hr incubation, cAMP concentrations were estimated according to the manufacturer specification with the HTRF kit (Cisbio International, Codelet, France). In brief, increasing concentrations of agonists were added to stably transfected cells in buffer in an Optiplate (PerkinElmer Life Sciences, Massachusetts, USA). The plates were incubated, and cells were then lysed by the addition of HTRF reagents (cAMP‐Cryptate and anti‐cAMP‐d2 reagents) and diluted in lysis buffer, followed by incubation at room temperature. […] Additionally, the reference values obtained were compared to historical values obtained from the same receptor and used to validate the experimental session. […] For the new assays developed in this study (i.e., 5‐ht1E receptor), the two independent pIC50 determined must be concordant with a 1 log unit interval for the assays to be validated.

5-HT1D receptor = molecular target: T2, 5-HT1D receptor (Homo sapiens, UniProt P28221); test: radioligand competition, CHO-K1 membranes; type: binding; settings: read-out: 5-HT1D / pKi (converted)
T2 construct: gene HTR1D; full-length human recombinant receptor in CHO-K1 cells (Ogeda); crude membranes
T2 sequence (P28221 whole entry): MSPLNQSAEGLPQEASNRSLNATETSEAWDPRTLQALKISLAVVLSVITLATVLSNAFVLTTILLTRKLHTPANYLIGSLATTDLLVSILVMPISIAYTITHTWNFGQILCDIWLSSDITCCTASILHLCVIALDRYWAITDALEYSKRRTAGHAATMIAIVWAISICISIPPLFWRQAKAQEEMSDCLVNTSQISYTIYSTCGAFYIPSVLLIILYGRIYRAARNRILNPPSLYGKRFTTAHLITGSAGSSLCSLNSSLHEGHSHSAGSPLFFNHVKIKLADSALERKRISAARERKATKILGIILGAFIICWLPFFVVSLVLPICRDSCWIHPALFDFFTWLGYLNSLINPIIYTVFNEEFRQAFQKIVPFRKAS
Excerpt: radioligand competition, CHO-K1 membranes on 5-HT1D receptor

5-HT1F receptor [1] = molecular target: T3, 5-HT1F receptor (Homo sapiens, UniProt P30939); test: cAMP HTRF, stably transfected CHO-K1 cells; type: cell-based
T3 construct: gene HTR1F; full-length human recombinant receptor in CHO-K1 cells (Ogeda)
T3 sequence (P30939 1-366): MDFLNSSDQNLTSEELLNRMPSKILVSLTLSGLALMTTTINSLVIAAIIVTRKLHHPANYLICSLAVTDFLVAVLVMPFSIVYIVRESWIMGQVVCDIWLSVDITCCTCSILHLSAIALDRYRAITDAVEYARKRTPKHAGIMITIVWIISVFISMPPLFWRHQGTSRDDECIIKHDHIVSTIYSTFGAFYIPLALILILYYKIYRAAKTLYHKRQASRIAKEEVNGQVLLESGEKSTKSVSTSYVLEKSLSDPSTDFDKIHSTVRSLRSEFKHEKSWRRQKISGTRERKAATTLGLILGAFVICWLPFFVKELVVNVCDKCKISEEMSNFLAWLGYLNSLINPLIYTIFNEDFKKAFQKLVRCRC

5-HT1B receptor [2] = molecular target: T4, 5-HT1B receptor (Homo sapiens, UniProt P28222); test: radioligand competition, CHO-K1 membranes; type: binding; settings: read-out: 5-HT1B / pKi (converted)
T4 construct: gene HTR1B; full-length human recombinant receptor in CHO-K1 cells (Ogeda); crude membranes
T4 sequence (P28222 whole entry): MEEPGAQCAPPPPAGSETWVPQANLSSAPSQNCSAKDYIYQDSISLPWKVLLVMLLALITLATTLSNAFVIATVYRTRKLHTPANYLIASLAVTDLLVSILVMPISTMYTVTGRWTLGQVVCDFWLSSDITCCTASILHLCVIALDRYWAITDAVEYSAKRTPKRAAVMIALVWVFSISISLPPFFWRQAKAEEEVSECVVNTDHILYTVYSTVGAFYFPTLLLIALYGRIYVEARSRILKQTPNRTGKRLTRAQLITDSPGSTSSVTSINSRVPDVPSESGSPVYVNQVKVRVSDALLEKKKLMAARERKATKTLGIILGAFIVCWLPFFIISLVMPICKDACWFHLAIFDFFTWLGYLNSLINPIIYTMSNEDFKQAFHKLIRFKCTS
Excerpt: radioligand competition, CHO-K1 membranes on 5-HT1B receptor

5-HT1F receptor [3] = molecular target: T3, 5-HT1F receptor; test: radioligand competition, CHO-K1 membranes; type: binding; settings: read-out: 5-HT1F / pKi (converted)
5-HT2A receptor = molecular target: T5, 5-HT2A receptor (Homo sapiens, UniProt P28223); test: radioligand competition, CHO-K1 membranes; type: binding; settings: read-out: 5-HT2A / pKi (converted)
T5 construct: gene HTR2A; full-length human recombinant receptor in CHO-K1 cells (Ogeda); crude membranes
T5 sequence (P28223 whole entry): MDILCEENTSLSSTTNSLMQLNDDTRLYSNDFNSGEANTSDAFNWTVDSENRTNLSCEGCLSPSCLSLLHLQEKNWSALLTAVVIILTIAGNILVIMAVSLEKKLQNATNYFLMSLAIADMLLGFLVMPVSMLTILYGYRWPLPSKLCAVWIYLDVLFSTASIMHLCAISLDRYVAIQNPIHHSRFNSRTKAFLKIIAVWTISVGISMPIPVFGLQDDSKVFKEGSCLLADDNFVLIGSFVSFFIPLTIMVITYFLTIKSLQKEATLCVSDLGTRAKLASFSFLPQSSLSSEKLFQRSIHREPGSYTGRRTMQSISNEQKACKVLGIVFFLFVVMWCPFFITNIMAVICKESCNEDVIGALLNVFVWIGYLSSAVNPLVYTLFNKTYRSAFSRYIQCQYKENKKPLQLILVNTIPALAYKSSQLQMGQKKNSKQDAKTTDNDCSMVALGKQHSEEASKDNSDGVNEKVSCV
Excerpt: radioligand competition, CHO-K1 membranes on 5-HT2A receptor

5-HT1A receptor = molecular target: T6, 5-HT1A receptor (Homo sapiens, UniProt P08908); test: radioligand competition, CHO-K1 membranes; type: binding; settings: read-out: 5-HT1A / pKi (converted)
T6 construct: gene HTR1A; full-length human recombinant receptor in CHO-K1 cells (Ogeda); crude membranes
T6 sequence (P08908 1-422): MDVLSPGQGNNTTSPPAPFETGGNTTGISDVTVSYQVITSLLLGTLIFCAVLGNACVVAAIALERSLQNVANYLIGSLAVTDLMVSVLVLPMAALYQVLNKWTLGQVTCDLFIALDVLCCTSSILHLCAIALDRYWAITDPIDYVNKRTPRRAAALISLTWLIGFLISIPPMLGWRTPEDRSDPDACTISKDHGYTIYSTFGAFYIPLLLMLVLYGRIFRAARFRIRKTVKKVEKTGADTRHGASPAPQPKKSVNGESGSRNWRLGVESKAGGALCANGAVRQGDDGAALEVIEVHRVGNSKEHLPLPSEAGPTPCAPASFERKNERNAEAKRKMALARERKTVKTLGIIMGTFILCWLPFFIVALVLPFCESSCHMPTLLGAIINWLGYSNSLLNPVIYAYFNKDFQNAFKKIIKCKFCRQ
Excerpt: radioligand competition, CHO-K1 membranes on 5-HT1A receptor

5-HT2B receptor [4] = molecular target: T7, 5-HT2B receptor (Homo sapiens, UniProt P41595); test: radioligand competition, CHO-K1 membranes; type: binding; settings: for Ki: read-out: 5-HT2B / pKi (converted)
T7 construct: gene HTR2B; full-length human recombinant receptor in CHO-K1 cells (Ogeda); crude membranes
T7 sequence (P41595 whole entry): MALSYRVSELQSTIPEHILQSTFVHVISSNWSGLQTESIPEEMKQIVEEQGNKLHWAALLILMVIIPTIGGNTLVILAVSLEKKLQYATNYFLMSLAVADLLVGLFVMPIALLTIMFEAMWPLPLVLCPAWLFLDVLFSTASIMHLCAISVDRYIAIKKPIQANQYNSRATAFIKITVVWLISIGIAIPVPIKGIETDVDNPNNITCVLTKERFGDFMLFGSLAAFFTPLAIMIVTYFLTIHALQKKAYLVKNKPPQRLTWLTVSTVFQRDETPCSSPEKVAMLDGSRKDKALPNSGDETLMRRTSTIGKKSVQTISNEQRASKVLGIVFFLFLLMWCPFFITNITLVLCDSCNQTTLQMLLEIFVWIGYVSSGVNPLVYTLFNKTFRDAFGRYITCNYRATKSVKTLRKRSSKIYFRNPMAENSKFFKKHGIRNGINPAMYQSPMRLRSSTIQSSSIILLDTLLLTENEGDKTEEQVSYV
Excerpt: radioligand competition, CHO-K1 membranes on 5-HT2B receptor

5-HT1B receptor [5] = molecular target: T4, 5-HT1B receptor; test: cell-based; set-up: species or system CHO-K1; cAMP HTRF agonist assay, Gi coupled receptors, inhibition of stimulated cAMP
Method: as §1

5-HT2B receptor [6] = molecular target: T7, 5-HT2B receptor; test: cell-based; set-up: species or system CHO-K1; IPOne HTRF agonist assay, IP1 accumulation in adherent transfected cells
Method: The assay was performed on adherent cells. For agonist testing, the medium was removed and 20 μl of assay buffer plus 20 μl of the studied agonist or the reference agonist were added in each well. The plate was incubated for 60 min at 37°C with 5% CO2. IP1‐D2 reagent and anti‐IP1 cryptate reagents were dispensed in the wells, and IP1 concentrations were then measured following the manufacturer instructions (IPOne HTRF assay kit; Cisbio International, Codolet, France). In brief, increasing concentrations of agonists were added to stably transfected cells in buffer in an Optiplate (PerkinElmer Life Sciences). The plates were incubated, and cells were then lysed by the addition of HTRF reagents (IP1‐D2 reagent and anti‐IP1 cryptate reagents) and diluted in lysis buffer, followed by incubation at room temperature. […] Additionally, the reference values obtained were compared to historical values obtained from the same receptor and used to validate the experimental session. […] For the new assays developed in this study (i.e., 5‐ht1E receptor), the two independent pIC50 determined must be concordant with a 1 log unit interval for the assays to be validated.

[7] = read-out: 5-HT1F / cAMP (converted)
[8] = cAMP, read-out: 5‐HT1B / cAMP (converted)
[9] = IP, read-out: 5‐HT2B / IP (converted)

Row | Structure (SMILES) | EC50 (5-ht1E receptor) | Ki (5-HT1D receptor) | EC50 (5-HT1F receptor [1]; [7]) | Ki (5-HT1B receptor [2]) | Ki (5-HT1F receptor [3]) | Ki (5-HT2A receptor) | Ki (5-HT1A receptor) | Ki (5-HT2B receptor [4]) | EC50 (5-HT1B receptor [5]; [8]) | EC50 (5-HT2B receptor [6]; [9]) | EC50 (5-HT1F receptor [1]; read-out: 5-HT1A / cAMP) | EC50 (5-HT1B receptor [5]) | EC50 (5-HT2B receptor [6]) | 5-HT2B / pKi (5-HT2B receptor [4]; radioligand listed in supplement Table S1, unreliable (pIC50 printed as <[…]))
1 | CNC1CCc2[nH]c3ccc(C(N)=O)cc3c2C1 (racemic) [Frovatriptan racemate] | 9120 nM | – | – | – | – | – | – | – | – | – | – | – | – | –
2 | CNS(=O)(=O)Cc1ccc2[nH]cc(CCCN3CCN(c4ncncc4OC)CC3)c2c1 [Avitriptan fumarate] | 3020 nM | 0.776 nM | 81.3 nM | 1.58 nM | 77.6 nM | 2340 nM | 19.5 nM | 1150 nM | 2.69 nM | 389 nM | – | – | – | –
3 | N#Cc1ccc(N2CCN(C(=O)COc3ccc4[nH]cc(CCN)c4c3)CC2)cc1 [Donitriptan hydrochloride] | > 10000 nM | 0.138 nM | – | 0.17 nM | – | 447 nM | 11.7 nM | 813 nM | – | – | > 10000 nM | 0.11 nM | 24.5 nM | –
4 | CN1CCC[C@@H]1Cc1c[nH]c2ccc(CCS(=O)(=O)c3ccccc3)cc12 [Eletriptan hydrobromide] | 29.5 nM | 0.102 nM | 7.41 nM | 0.525 nM | 17 nM | 1150 nM | 1.95 nM | 447 nM | 10 nM | 155 nM | – | – | – | –
5 | CN(C)[C@@H]1CCc2[nH]c3ccc(NC(=O)c4ccc(F)cc4)cc3c2C1 [LY344864 hydrochloride] | – | – | – | – | – | – | – | – | – | > 10000 nM | – | – | – | –
6 | CNS(=O)(=O)CCc1ccc2[nH]cc(C3CCN(C)CC3)c2c1 [Naratriptan hydrochloride] | 17.8 nM | 0.501 nM | 4.17 nM | 0.603 nM | 1.78 nM | – | 15.1 nM | – | 8.91 nM | > 10000 nM | – | – | – | 5.08 -log M
